Assay results published in PMC7095208 (Nature, 2014).

Experiments:
RAVV = conditions: mouse, in vivo
EBOV = conditions: mouse, in vivo

Structure (SMILES): Nc1ncnc2c([C@@H]3N[C@H](CO)[C@@H](O)[C@H]3O)c[nH]c12 [BCX4430, (2S,3S,4R,5R)-2-(4-amino-5H-pyrrolo[3,2-d]pyrimidin-7-yl)-5-(hydroxymethyl)pyrrolidine-3,4-diol]
- protection (RAVV): 75–100%
- protection (survival vs vehicle) (RAVV): significant protection
- protection against lethal EBOV challenge (EBOV): protected
